Experimental data as given in US4564476A, “Aryl fatty acid leukotriene synthesis inhibitors” (McNeilab, Inc., priority 1984, dated 1986).

Experiments:
[1] = system: guinea pig lung parenchymal tissue; experiment: Immunologically Mediated Contraction of the Parenchymal Strip (IMCPS); design: species or system guinea pig (male Hartley strain); details: Cavia porcellus, egg albumin induced contraction of sensitized guinea pig lung parenchymal strip, with chlorpheniramine 10.0 μM and indomethacin 100.0 μM, relative to control tissue, read-out: IMCPS % inhib. 100 μM
Description: (a) Immunologically Mediated Contraction of the Parenchymal Strip (IMCPS)
It is a modification of the procedure published by K. Forsberg and L. Sorenby in Agents and Actions, Vol. 9 pp. 364-368 (1978). In this test, male Hartley strain guinea pigs weighing 400 to 600 g were sensitized by subcutaneous administration of chicken egg albumin (Sigma A-5503, 1.0 mg, 0.5% solution) and bordetella pertussis, 11×10^9 cells (Massachusetts Public Health Biological Labs) 4 to 8 weeks prior to the experiment. The animals were sacrificed, the heart and lungs were removed en bloc and placed in Krebs solution at room temperature. Lung strips (2.5 cm in length) were cut from the peripheral edge of each lobe. Two strips were removed from each animal and were trimmed to be of equal length. Each strip was suspended in an isolated organ bath (10.0 ml) containing oxygenated Krebs buffer solution at 37.5° C. then attached to a force displacement transducer (Grass FT03) and placed under an initial tension of 1.0 g. The tissues were allowed to equilibrate for 45-60 minutes, during which the bathing solution was changed several times. At the end of the equilibration period, chlorpheniramine (10.0 μM) and indomethacin (100.0 μM) were added to eliminate the contribution of histamine and prostaglandins to the contractile response. The two tissues from each animal were matched so that one tissue served as a control, and the test drug dissolved in DMSO was added to the bath containing the other tissue at a final concentration of 100 μM. After 30 minutes, egg albumin was added to each bath and the contractile response was measured as milligrams of tension developed as recorded on a Grass Model 7D polygraph.

[2] = system: lipoxygenase metabolites released or generated from human granulocyte cells; experiment: Human Granulocyte Assay for Lipoxygenase Products (HGALP); assay type: cell-based; details: [3H]-arachidonic acid prelabeled human granulocytes, 10 μM ionophore A23187
[3] = system: lipoxygenase metabolites released or generated from human granulocyte cells; experiment: as above; assay type: cell-based; details: [3H]-arachidonic acid prelabeled human granulocytes, 10 μM ionophore A23187 challenge, 14 μM indomethacin
Description: (b) Human Granulocyte Assay for Lipoxygenase Products (HGALP)
This test is a measurement of the inhibition of the synthesis or release of [3H]-labeled lipoxygenase metabolites released or generated from human granulocyte cells that are prelabeled with [3H]-arachidonic acid. These metabolites include the leukotrienes (e.g., LTB4) which are potent mediators of inflammation and allergy. In this test, a granulocyte enriched fraction is prepared from freshly drawn human blood (50 ml/donor) by standard techniques involving unit gravity separation on ficoll hypaque. Cells are prelabeled with [3H]-arachidonic acid (20 μCi in 2 ml cell suspension) during a 30 min. incubation at 37° C. After washing out unincorporated label, the radiolabeled cells are brought up in incubation buffer (Minimum Essential Medium containing 14 μM indomethacin) to a 10^7 cell/ml concentration. Cell suspensions (1 ml/sample) are preincubated for 5 min. in the presence or absence of test drugs delivered in 5 μl dimethylsulfoxide (DMSO). Cell suspensions are challenged with 10 μM ionophore A23187 to activate the calcium-dependent metabolism of [3H]-arachidonic acid. After a 5 min. incubation at 37° C., incubations are terminated by the addition of 1 ml ice cold phosphate buffered saline, and cells are pelleted by centrifugation. Supernatants are passed through C18 Sep Pak® cartridges which are then washed twice with 1 ml water. Lipoxygenase metabolites are eluted with two 1 ml volumes of methanol. Eluates are collected in scintillation vials and counted in Aqueous Counting Scintillant (ACS). Radioactivity eluted with methanol is a measure of lipoxygenase metabolites. Values are normalized to vehicle (5 μl DMSO) treated controls and expressed as percent inhibition. Triplicate determinations at each drug concentration are analyzed as log-dose response curves by linear regression analysis from which IC50 values are derived.

Compound	inhibition at 100 µM [1] [%]	inhibition at 100 µM [2] [%]	IC50 [3] [µM]
CC(C)(/C=C\CCCC(=O)O)COCc1ccccc1 [Example 1c, 7,7-Dimethyl-8-(phenylmethoxy)-5(Z)-octenoic Acid]	79	–	–
COc1ccc(COCC(C)(C)/C=C\CCCC(=O)O)cc1 [Example 5c, 7,7-Dimethyl-8-(4-methoxyphenylmethoxy)-5(Z)-octenoic Acid]	31	18	–
CC(C)(C=Cc1ccc(Cl)cc1)/C=C\CCCC(=O)O [Example 9, 9-(4-Chlorophenyl)-7,7-dimethyl-5(Z),8-nonadienoic acid]	76	–	19
CC(C)(/C=C\CCCC(=O)O)COCc1ccc(O)cc1 [Example 7, 7,7-Dimethyl-8-(4-hydroxyphenylmethoxy)-5(Z) Octenoic Acid]	4	–	255
COC(=O)CCC/C=C\C(C)(C)COCc1ccc(O)cc1 [Example 6, Methyl 7,7-dimethyl-8-(4-hydroxyphenylmethoxy)-5(Z)-octenoate]	49	–	39
CC(C)(/C=C\CCCCO)COCc1ccccc1 [Example 4, 7,7-Dimethyl-8-(phenylmethoxy)-5(Z)-octenol]	38	–	17
CCCC=Cc1ccccc1COCC(C)(C)/C=C\CCCC(=O)O [Example 11g, 7,7-Dimethyl-8-[2(1-pentenyl)phenylmethoxy]-5(Z)octenoic acid]	40	–	96
COC(=O)CCC/C=C\C(C)(C)C=Cc1ccc(Cl)cc1 [Example 8c, Methyl 9-(4-chlorophenyl)-7,7-dimethyl-5(Z),8-nonadienoate]	15	–	6.6
CN(C)C(=O)CCC/C=C\C(C)(C)COCc1ccccc1 [Example 2, N,N,7,7-Tetramethyl-8-(phenylmethoxy)-5(Z)-octenamide]	19	–	42
CC(C)(/C=C\CCCC(=O)O)COCC=Cc1ccccc1 [Example 10c, 7,7-Dimethyl-8-(3-phenyl-2-propenoxy)-5(Z) octenoic Acid]	44	5	–
